Tests used:
[1] = target: T1, EGFR^wt-TK (Homo sapiens, UniProt P00533); assay: In vitro EGFR^wt-TK assay (ELISA kit); assay type: biochemical; conditions: mean ± SD of three replicates; for inhibition at 1 µM: read-out: EGFR^wt-TK inhibition rate
T1 construct: purchased
Protocol: The IC50 values of target compounds against EGFR^wt were calculated from the dose − response curve under Graph-Pad Prism 9, which was tested at the different concentrations.

[2] = system: A549 cells; assay: In vitro activity against cancer cell lines (MTT), A549; assay type: cell-based; conditions: Homo sapiens, mean ± SD of three replicates
Source text: (§1) Co., Ltd. A549 (Human non-small-cell lung cancer cell line) cells, MCF-7 (Human breast cancer
(§2) cell line) cells, and PC-3 (Human prostate cancer cell line) cells. They were all purchased from the
(§3) Shanghai Cell Bank of the Chinese Academy of Sciences. NRK-52E (Normal rat kidney cell line)
(§4) cells donated by Guizhou Medicinal University were also used to evaluate the cytotoxicity.

[3] = system: MCF-7 cells; assay: In vitro activity against cancer cell lines (MTT), MCF-7; assay type: cell-based; conditions: Homo sapiens, MCF7, mean ± SD of three replicates
Source text: as §1, §2, §3, §4

[4] = system: PC-3 cells; assay: In vitro activity against cancer cell lines (MTT), PC-3; assay type: cell-based; conditions: Homo sapiens, mean ± SD of three replicates
Source text: as §1, §2, §3, §4

[5] = system: NRK-52E (Normal rat kidney cell line) cells; assay: Cytotoxicity evaluation against normal cell line (MTT); assay type: cell-based; conditions: 10 μM
Source text: Three tumour cells A549, MCF-7, and PC-3 with high expression of EGFR^wt were used to investigate antitumor activities of compounds 9a–9x. NRK-52E (Normal rat kidney cell line) cells were used to evaluate cytotoxicity of compounds 9a–9x. They were all tested with typical MTT method, and Gefitinib were used as positive controls.
NRK-52E (Normal rat kidney cell line) cells were used to evaluate cytotoxicity of compounds 9a–9x.

[6] = system: A549 cells; assay: A549 cell cycle analysis (flow cytometry); assay type: cell-based, Human
[7] = system: A549 cells; assay: A549 cell apoptosis (Annexin V-FITC/PI flow cytometry); conditions: 48 h
Protocol: And then, the original culture medium was replaced with 0.1 μM, 0.5 μM, and 1 μM compounds (Geftinib or the testing compound) in the cell incubator for 48 h. After trypsin digests cells, the cells were collected after centrifugation, resuspended with PBS and counted. After suspension of the cells with Annexin V – FITC binding solution and mixing with PI staining solution, the fluorescence density was detected by flow cytometry in BD Accuri C6 flow cytometry, which was provided by School of Pharmaceutical Sciences, Guizhou University, China.

T1 sequence (P00533 25-1210): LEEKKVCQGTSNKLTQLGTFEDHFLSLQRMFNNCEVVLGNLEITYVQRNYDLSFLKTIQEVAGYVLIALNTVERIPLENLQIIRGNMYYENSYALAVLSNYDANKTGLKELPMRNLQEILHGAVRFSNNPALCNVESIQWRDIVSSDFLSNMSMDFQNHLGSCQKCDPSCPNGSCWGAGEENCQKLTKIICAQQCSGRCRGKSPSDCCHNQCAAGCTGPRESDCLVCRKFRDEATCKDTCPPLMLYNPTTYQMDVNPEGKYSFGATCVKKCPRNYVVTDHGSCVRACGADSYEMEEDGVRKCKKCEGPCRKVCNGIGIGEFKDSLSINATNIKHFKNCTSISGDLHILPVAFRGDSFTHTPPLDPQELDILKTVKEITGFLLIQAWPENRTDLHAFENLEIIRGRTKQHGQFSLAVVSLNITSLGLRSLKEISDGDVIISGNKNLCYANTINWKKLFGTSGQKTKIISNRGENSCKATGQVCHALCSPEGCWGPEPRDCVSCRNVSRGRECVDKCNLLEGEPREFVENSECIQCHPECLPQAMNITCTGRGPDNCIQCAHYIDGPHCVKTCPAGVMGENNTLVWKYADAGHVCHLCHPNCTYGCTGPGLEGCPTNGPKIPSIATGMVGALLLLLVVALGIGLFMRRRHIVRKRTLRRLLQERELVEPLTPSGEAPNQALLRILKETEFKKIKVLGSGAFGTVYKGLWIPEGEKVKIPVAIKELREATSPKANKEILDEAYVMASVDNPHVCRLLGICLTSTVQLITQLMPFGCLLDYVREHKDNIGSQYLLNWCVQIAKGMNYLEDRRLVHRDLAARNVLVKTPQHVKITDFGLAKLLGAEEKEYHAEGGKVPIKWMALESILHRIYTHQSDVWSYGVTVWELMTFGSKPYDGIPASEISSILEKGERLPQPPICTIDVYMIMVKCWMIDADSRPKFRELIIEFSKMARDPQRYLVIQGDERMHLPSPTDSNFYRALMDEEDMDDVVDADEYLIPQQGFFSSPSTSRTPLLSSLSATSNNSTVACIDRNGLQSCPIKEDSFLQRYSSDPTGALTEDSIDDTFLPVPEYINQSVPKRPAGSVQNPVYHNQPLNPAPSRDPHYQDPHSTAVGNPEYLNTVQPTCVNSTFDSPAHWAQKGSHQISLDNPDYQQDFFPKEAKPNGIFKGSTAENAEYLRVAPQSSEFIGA

## CNC(=O)c1sccc1Nc1nc(Nc2ccc(NC(=O)C=Cc3cccc(F)c3)cc2)ncc1C(F)(F)F [Compound 9u, 3–(2-{4-[3-(3-Fluoro-phenyl)-acryloylamino]-phenylamino} -5-trifluoromethyl-pyrimidin-4-ylamino)-thiophene-2-carboxylic acid methylamide]
[1]; 1 μM
  EGFR^wt-TK inhibition rate: 62.73 ± 1.86%
  inhibition at 1 µM: > 50%
[1]
  IC50: 0.091 ± 0.0084 µM
[2]
  IC50: 0.35 ± 0.11 µM
[3]
  IC50: 3.24 ± 0.16 µM
[4]
  IC50: 5.12 ± 0.73 µM
[5]
  inhibition against NRK-52E cells: less than 5%
[6]; 0.1 μM
  Proportion of A549 cells at G2/M: 19.79%
[6]; 1 μM
  Proportion of A549 cells at G2/M: 43.92%
other
  melting point: 237.5 to 238.8 °C
[7]; A549, 0.1 μM
  Q2-4 (early apoptosis): 3.39%
[7]; A549, 1 μM
  Q2-4 (early apoptosis): 52.96%

## CNC(=O)c1sccc1Nc1nc(Nc2ccc(NC(=O)Nc3cccc(F)c3)cc2)ncc1C(F)(F)F [Compound 9w, 3-(2-{4-[3–(3-Fluoro-phenyl)-ureido]-phenylamino}-5-trifluoromethyl-pyrimidin-4-ylamino)-thiophene-2-carboxylic acid methylamide]
[1]; 1 μM
  inhibition at 1 µM: 47.7 ± 1.72%
[2]
  IC50: 3.98 ± 0.83 µM
[3]
  IC50: 6.15 ± 0.77 µM
[4]
  IC50: 10.6 ± 1.74 µM
other
  melting point: > 250 °C

## CNC(=O)c1sccc1Nc1nc(Nc2ccc(NC(=O)Nc3ccc(F)cc3)cc2)ncc1C(F)(F)F [Compound 9x, 3–(2-{4-[3–(4-Fluoro-phenyl)-ureido]-phenylamino}-5-trifluoromethyl-pyrimidin-4-ylamino)-thiophene-2-carboxylic acid methylamide]
[1]; 1 μM
  inhibition at 1 µM: 44.5 ± 1.84%
[2]
  IC50: 4.25 ± 0.86 µM
[3]
  IC50: 6.38 ± 0.97 µM
[4]
  IC50: 11.5 ± 1.23 µM
other
  melting point: > 250 °C

## COc1cc2ncnc(Nc3ccc(F)c(Cl)c3)c2cc1OCCCN1CCOCC1 [Gefitinib]
[6]; 0.1 μM
  Proportion of A549 cells at G2/M: 17.32%
[6]; 0.5 μM
  Proportion of A549 cells at G2/M: 20.72%
[6]; 1 μM
  Proportion of A549 cells at G2/M: 21.45%
[7]; A549, 0.1 μM
  Q2-4 (early apoptosis): 1.03%
[7]; A549, 1 μM
  Q2-4 (early apoptosis): 11.98%
